Patent US20240390515A1, “MULTIDOSE OPHTHALMIC COMPOSITIONS” (Oculis Operations Sàrl, priority 2022, published 2024)

Key:
[1] = cited from earlier work
[2] = system: Pseudomonas aeruginosa, Staphylococcus aureus, Candida albicans, Aspergillus brasiliensis, Escherichia coli; assay: Antimicrobial Efficacy Test (AET) according to USP-NF monograph <51>; type: cell-based; details: dexamethasone eye drops, pH 5.0, USP-NF AET methodology
Description: For assessing the antimicrobial preservative agents, an Antimicrobial Efficacy Test (AET) is performed according to both USP-NF and EP standards • USP-NF: “American Pharmacopoeia” monograph <51> • EP: “European Pharmacopoeia” monograph […]
Those AETs consist in challenging the drug formulation containing an antimicrobial preservative agent at a certain concentration with specific microbial strains. The results are provided in microbial reduction expressed in logarithmic units. The acceptance criteria are specific of each standard (either US or EU) according to the table below. For being declared as passing the test, all the criteria must be achieved over the 28 days period. If at least one criterion is missed, then the whole test is declared failed.
AET acceptance criteria (microbial burden reduction in Log units)
Based on current knowledge those three microbial challenge tests (AETs), also known in the past as preservative efficacy tests (PET), are known to be more or less difficult to pass. EP/A test is known to be the most difficult one to pass. EB/B is less difficult than EB/A. USP-NF test is usually less difficult or sometimes equivalent to EP/B.

Row | Structure (SMILES) | Water solubility (at 20° C.) [1] | Temperature Stability ([1]; in words) | solubility in water ([1]; in words) | Log P(octanol/water) ([1]; octanol/water) | minimum effective dose of potassium sorbate used as an antimicrobial agent [2]
1 | C/C=C/C=C/C(=O)O [SA, (2E,4E)-hexa-2,4-dienoic acid] | Low (0.15%) | Low | slightly soluble in water | 1.3 | 
2 | C/C=C/C=C/C(=O)[O-].[K+] [KS, Potassium sorbate] | Good (>50%) | Medium |  |  | 0.235 % w/v
3 | CCCCOC(=O)c1ccc(O)cc1 [BPB, butyl paraben] | Low (0.25%) | Yes |  |  | 
